{"source": "paper PMC9877462", "about": "“Real time monitoring and evaluation of the inhibition effect of fucoxanthin against α-amylase activity by using QCM-A” (Frontiers in Nutrition, 2023)", "molecular_target": "T1, α-amylase (from human saliva, EC 3.2.1.1) (Homo sapiens, UniProt P0DUB6)", "T1 construct": "gene AMY1A", "T1 sequence (P0DUB6 16-511)": "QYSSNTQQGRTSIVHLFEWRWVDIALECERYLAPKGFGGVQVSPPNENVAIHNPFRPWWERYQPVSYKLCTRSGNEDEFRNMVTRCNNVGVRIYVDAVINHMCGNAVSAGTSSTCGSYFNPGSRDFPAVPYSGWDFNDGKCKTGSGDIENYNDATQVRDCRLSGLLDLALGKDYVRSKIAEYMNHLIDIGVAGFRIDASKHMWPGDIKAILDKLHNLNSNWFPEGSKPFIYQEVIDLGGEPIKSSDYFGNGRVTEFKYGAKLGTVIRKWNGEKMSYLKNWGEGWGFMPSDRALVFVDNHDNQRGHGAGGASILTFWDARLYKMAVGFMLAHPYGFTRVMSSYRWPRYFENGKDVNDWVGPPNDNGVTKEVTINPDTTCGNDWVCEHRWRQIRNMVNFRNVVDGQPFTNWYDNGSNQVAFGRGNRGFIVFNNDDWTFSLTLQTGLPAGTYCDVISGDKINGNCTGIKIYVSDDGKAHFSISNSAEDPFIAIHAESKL", "test": "Enzyme inhibition kinetics (Lineweaver-Burk and Dixon plots) with amylose substrate; amylose-immobilized QCM-A hydrolysis assay", "assay_type": "biochemical", "data": [{"smiles": "CC(=O)O[C@H]1CC(C)(C)C(=C=C/C(C)=C/C=C/C(C)=C/C=C/C=C(C)/C=C/C=C(\\C)C(=O)C[C@@]23O[C@]2(C)C[C@@H](O)CC3(C)C)[C@](C)(O)C1", "note": "[fucoxanthin]", "values": [{"measurement": "Ki", "value": 36.3, "unit": "µM"}]}]}
